Assay results taken from patent US8431378B2, “Aminotransferase, gene encoding the same, and methods of using them” (Kaneka Corporation, priority 2005, dated 2013).
“Also recorded” adds a separate entry of the source.

What was measured:
[1] = test system: purified enzyme MTA (aminotransferase); assay: Specificity for amino acceptor, (S)-α-phenethylamine as donor (Examples 5 and 6); format: biochemical, Pseudomonas fluorescens KNK08-18; settings: for Activity as amino acceptor (in words): donor (S)-α-phenethylamine
Protocol: The purified enzyme obtained in Example 1 was analyzed in terms of substrate specificity regarding amino acceptors. In 20 μL of the purified Enzyme, 380 μL of a 0.1M potassium phosphate buffer containing 14 mM of (S)-α-phenethylamine and 14 mM of a ketone compound of various type was added. After the mixture was reacted at 30° C. for 1 hour, 20 μL of 3N hydrochloric acid was added therein to stop the reaction. Results of the analysis are shown in Table 3, in which the relative activities are shown where the activity with pyruvic acid as the amino acceptor is 100.
(§1) [Analysis Conditions of High-Performance Liquid Chromatography]
(§2) • Column: Cosmosil 5C8-MS (Nacalai Tesque Inc.) • Carrier: 30 mM potassium phosphate buffer (pH 2.5)/acetonitrile/methanol=4/1/1 (by volume) • Flow Rate: 0.9 mL/min • Detection: 254 nm
The purified enzyme obtained in Example 1 was analyzed in terms of substrate specificity regarding amino acceptors in the same manner as in Example 5.

[2] = test system: purified enzyme MTA (aminotransferase); assay: Specificity for amino donor, 7-methoxy-2-tetralone as amino acceptor (Example 3); format: biochemical, Pseudomonas fluorescens KNK08-18; settings: amino donor varied, 14 mM (racemic 28 mM); acceptor 14 mM 7-methoxy-2-tetralone; 30° C., 1 hour; activity with (S)-α-phenethylamine is 100
Protocol: In 20 μL of the purified Enzyme, 380 μL of a 0.1M potassium phosphate buffer containing 14 mM of 7-methoxy-2-tetralone and 14 mM (in case of the racemic amine compound, 28 mM)) of an amine compound of various type was added. After the mixture was reacted at 30° C. for 1 hour, 20 μL of 3N hydrochloric acid was added therein to stop the reaction. The reaction solution thus obtained was analyzed via high-performance liquid chromatography so as to quantitatively analyze 7-methoxy-2-aminotetralin thus obtained. Thereby, the amino group transfer activities with the various amino compounds were analyzed.
as §1, §2

[3] = test system: purified enzyme MTA (aminotransferase); assay: Specificity for amino donor, pyruvic acid as acceptor, dabsylated alanine quantified (Example 4); format: biochemical, Pseudomonas fluorescens KNK08-18; settings: for Amino group transfer activity as amino donor (in words): acceptor pyruvic acid; for Relative Activity (%): amino donor varied, 14 mM, acceptor 14 mM pyruvic acid, pH 7.5, 30° C., 1 hour, activity with (S)-α-phenethylamine is 100
Protocol: (§3) The amino group transfer activity measurement is carried out as follows: Firstly, 20 μL of a purified enzyme solution having a protein concentration of 0.2 mg/mL is added to 380 μL of a substrate solution having the following composition. After carrying out reaction at 30° C. for 1 hour therein, 20 μL of 3N hydrochloric acid is added therein to stop the reaction. Then, into 20 μL of the resultant reaction mixture, a 0.2M sodium carbonate aqueous solution of 80 μL and an acetone solution of 200 μL containing dabsyl chloride by 3.3 mg/mL are added. Then, the resultant mixture is reacted at 70° C. for 10 min. After 20 μL of acetic acid is added therein with stirring. The reaction mixture thus obtained is analyzed by high-performance liquid chromatography thereby to quantitatively analyze dabsylated alanine.
as §3, with “purified enzyme obtained in Example 1 was analyzed in terms of its reactivity to typical substrates of ω-amino acid transaminase.” for “amino group transfer activity measurement is carried out as follows:”, “was” for “is”, “[…]” for “380 μL”, “were” for “are”, “alanine. Results of the analysis are shown in Table 2, which the amino group transfer activities are shown as relative activities where the activity with (S)-α-phenethylamine as the amino donor is 100.” for “alanine.”
(§4) [Substrate Solution Composition]
(§5) Pyridoxal phosphate 0.02 mM
(§6) Potassium Phosphate Buffer (pH 7.5) 0.1M
(§7) [High-Performance Liquid Chromatography Analysis Conditions]
(§8) Column: Deverosil ODS-HG-3 (Nomura Chemical Co., Ltd.)
(§9) Carrier: Acetonitrile/0.045M acetate buffer (pH 4.1)=35/65 (by volume)

MTA (present invention) = assay: Substrate specificity, comparison with ω-amino acid transaminase (Example 7), Enzyme A; format: biochemical, Pseudomonas fluorescens KNK08-18; settings: for Reactivity as amino donor (in words): Enzyme A (MTA), receptor pyruvic acid or 2-ketoglutaric acid; for Relative activity, Enzyme A: donor 14 mM, activity with (S)-α-phenethylamine is 100
Protocol: The purified enzyme obtained in Example 1 was analyzed in terms of its reactivity to typical substrates of ω-amino acid transaminase. Firstly, 20 μL of a purified enzyme solution having a protein concentration of 0.2 mg/mL was added to 380 μL of a substrate solution having the following composition. After carrying out reaction at 30° C. for 1 hour therein, 20 μL of 3N hydrochloric acid was added therein to stop the reaction. Then, into 20 μL of the resultant reaction mixture, a 0.2M sodium carbonate aqueous solution of 80 μL and an acetone solution of 200 μL containing dabsyl chloride by 3.3 mg/mL were added. Then, the resultant mixture was reacted at 70° C. for 10 min. After 20 μL of acetic acid was added therein with stirring. The reaction mixture thus obtained was analyzed by high-performance liquid chromatography thereby to quantitatively analyze dabsylated alanine or […]. Results of the analysis are shown in Table 5, in which the relative activities are shown where the activity with (S)-α-phenethylamine as the amino donor is 100. In Table 5, the values of activities of ω-amino acid:pyruvic acid transaminase and 4-amino butyric acid: 2-ketoglutaric acid transaminase are from the literatures “Agric. Biol. Chem. 41, 1701-1706 (1977), Arch. Biochem. Biophys. 200, 156-164 (1980)”.
as §4
Pyruvic acid or 2-ketoglutaric acid 14 mM
as §5, §6, §7, §8, §9

[4] = target: T1, ω-Amino Acid: Pyruvic Acid Transaminase (Pseudomonas putida, UniProt P28269); settings: amino group receptor pyruvic acid; values from the literature; cited from earlier work
T1 sequence (P28269 1-449): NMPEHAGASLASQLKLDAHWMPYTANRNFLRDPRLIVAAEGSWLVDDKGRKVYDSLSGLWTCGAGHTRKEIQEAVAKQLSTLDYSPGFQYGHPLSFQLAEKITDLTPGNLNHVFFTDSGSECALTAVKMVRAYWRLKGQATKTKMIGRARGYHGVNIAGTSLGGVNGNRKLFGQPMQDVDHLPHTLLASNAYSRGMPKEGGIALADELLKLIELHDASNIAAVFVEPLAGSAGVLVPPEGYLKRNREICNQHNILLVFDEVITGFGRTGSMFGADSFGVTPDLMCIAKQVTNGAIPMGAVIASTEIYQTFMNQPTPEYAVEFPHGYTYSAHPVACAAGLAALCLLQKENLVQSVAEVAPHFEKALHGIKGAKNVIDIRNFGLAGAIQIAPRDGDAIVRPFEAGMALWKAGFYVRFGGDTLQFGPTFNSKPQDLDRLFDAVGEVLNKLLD

[5] = test system: 4-Aminobutylic Acid: 2-Ketoglutaric Acid Transaminase; settings: amino group receptor 2-ketoglutaric acid; values from the literature; cited from earlier work
[6] = Table 4: amino acceptor varied, same manner as in Example 5, donor (S)-α-phenethylamine
[7] = Table 3: amino acceptor varied, 14 mM, donor 14 mM (S)-α-phenethylamine, 30° C., 1 hour, activity with pyruvic acid is 100
[8] = amino group receptor pyruvic acid 14 mM
[9] = amino group receptor 2-ketoglutaric acid 14 mM

CC(=O)c1cnccn1 [Acetylpyrazine]
Relative Activity (%) [1, 6]: 100%

O=Cc1ccccc1 [Benzaldehyde]
Relative Activity (%) [1, 7]: 2%

CC(=O)CCc1ccccc1 [Benzylacetone]
Relative Activity (%) [1, 6]: 33%

CCCC=O [Butylaldehyde]
Relative Activity (%) [1, 7]: 18%

O=CC(=O)O [Glyoxylic Acid]
Relative Activity (%) [1, 7]: 99%
Activity as amino acceptor (in words) [1]: high activity; also recorded: active

C[C@H](N)C(=O)O [L-alanine]
Relative Activity (%) [2]: 20%

COCC(C)=O [Methoxypropanone]
Relative Activity (%) [1, 6]: 13%

CCC=O [Propionaldehyde]
Relative Activity (%) [1, 7]: 5%

NCCCCN [Putrescine]
Amino group transfer activity as amino donor (in words) [3]: no activity; also recorded: substantially inactive
Relative Activity (%) [3]: 0%
Reactivity as amino donor (in words) (MTA (present invention)): not reactive
Relative activity, Enzyme A (MTA (present invention); [8]): 0
Relative activity, Enzyme B [4]: 18

CC(=O)C(=O)O [Pyruvic Acid, reference compound]
Relative Activity (%) [1, 7]: 100%
Activity as amino acceptor (in words) [1]: high activity; also recorded: active

NCCS(=O)(=O)O [Taurine]
Amino group transfer activity as amino donor (in words) [3]: no activity; also recorded: substantially inactive
Relative Activity (%) [3]: 0%
Reactivity as amino donor (in words) (MTA (present invention)): not reactive
Relative activity, Enzyme A (MTA (present invention); [9]): 0
Relative activity, Enzyme A (MTA (present invention); [8]): 0
Relative activity, Enzyme B [4]: 132
Relative activity, Enzyme C [5]: 8

NCc1ccccc1 [benzylamine]
Relative Activity (%) [2]: 35%

NC1CCCCC1 [cyclohexylamine]
Relative Activity (%) [2]: 22%

CC(C)CN [isobutylamine]
Relative Activity (%) [2]: 8%

CC(C)N [isopropylamine]
Relative Activity (%) [2]: 10%

CCCCCN [n-amylamine]
Relative Activity (%) [2]: 11%

CCCCN [n-butylamine]
Relative Activity (%) [2]: 7%

CCN [n-ethylamine]
Relative Activity (%) [2]: 6%

CCCN [n-propylamine]
Relative Activity (%) [2]: 6%

NCCC(=O)O [β-alanine]
Relative Activity (%) [2]: 0%
Amino group transfer activity as amino donor (in words) [3]: substantially inactive
Amino group transfer activity as amino donor (in words) ([3]; listed as Valanine): no activity
Relative Activity (%) [3]: 0%
Reactivity as amino donor (in words) (MTA (present invention)): not reactive
Relative activity, Enzyme A (MTA (present invention); [9]): 0
Relative activity, Enzyme A (MTA (present invention); [8]): 0
Relative activity, Enzyme B [4]: 100
Relative activity, Enzyme C [5]: 0

NCCc1ccccc1 [β-phenethylamine]
Relative Activity (%) [2]: 22%
